What is called AC50 is the concentration giving half of the maximal activity seen. For orientation: CC50 means the concentration that lowers cell viability or growth by half. As usually defined, the EC50 is the concentration at which the effect is half-maximal.

The nature of series [1]: blockers of HIV-1 envelope-mediated cell-cell fusion – cherry-pick, dose response (AID 652057). The class given is functional, cell-based.
The nature of series [2]: viability of uninfected HEp-2 cells – cell-based, HTS, cytotoxicity control for RSV inhibitor project, dose response (AID 2410). Conditions: human respiratory syncytial virus. The class given is functional.
Series [3] in a line: blockers of HIV-1 ZM109 envelope-driven cell-cell fusion – HeLa effector, CEM target cells, luciferase, cherry-pick, dose response (AID 652058).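 Note: luciferase signal from HIV-1 Env mediated cell-cell fusion of effector and target cells.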 It counts as functional, cell-based.
Series [4] is described as follows: HIV-1 AD8 envelope cell-cell fusion blockers – cherry-pick, dose response (AID 652062).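 Note: luciferase signal from cell-cell fusion driven by HIV-1 clade B AD8 Env; potency is for inhibitors of fusion seen as a drop in luminescence.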 The class given is functional, cell-based.
A short description of series [5]: off-target signal loss in HeLa-CEM21 co-culture – HeLa F-luc CTL cells, cherry-picked, counter-screen for HIV-1 Env fusion inhibitor project, dose response (AID 652040).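 Note: potency for signal decrease marking cytotoxic or nonspecific inhibition.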 It counts as functional, cell-based. A general note: Counterscreens check selectivity or assay interference.
The subject of series [6] is BJ. As to the kind of experiment: cells. It counts as functional, cell-based. Conditions: Homo sapiens.
Series [7] can be described thus: DRD fibroblast viability loss – cell-based, non-viral oncogenic, luminescence, dose response (AID 1934). The settings on record: Homo sapiens. The class given is functional.
Series [8] concerns BJ. As to the kind of experiment: BJ-TERT-LT-ST fibroblast viability loss – cell-based, RAS-independent, luminescence, dose response (AID 1935).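 Note: BJ fibroblasts immortalized with TERT plus LT and ST oncogenes.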 The settings on record: Homo sapiens. It counts as functional.
Series [9] relates to BJ. In words: BJ-TERT fibroblast viability loss – cell-based, RAS-independent, luminescence, dose response (AID 1933). It counts as functional. The settings on record: Homo sapiens.
Series [10] has as its target Cytochrome P450 2C9 (Homo sapiens, UniProt P11712).
The target of series [11] is T1, Short transient receptor potential channel 4 (Mus musculus, UniProt Q9QUQ5).
T1 sequence (Q9QUQ5 whole entry): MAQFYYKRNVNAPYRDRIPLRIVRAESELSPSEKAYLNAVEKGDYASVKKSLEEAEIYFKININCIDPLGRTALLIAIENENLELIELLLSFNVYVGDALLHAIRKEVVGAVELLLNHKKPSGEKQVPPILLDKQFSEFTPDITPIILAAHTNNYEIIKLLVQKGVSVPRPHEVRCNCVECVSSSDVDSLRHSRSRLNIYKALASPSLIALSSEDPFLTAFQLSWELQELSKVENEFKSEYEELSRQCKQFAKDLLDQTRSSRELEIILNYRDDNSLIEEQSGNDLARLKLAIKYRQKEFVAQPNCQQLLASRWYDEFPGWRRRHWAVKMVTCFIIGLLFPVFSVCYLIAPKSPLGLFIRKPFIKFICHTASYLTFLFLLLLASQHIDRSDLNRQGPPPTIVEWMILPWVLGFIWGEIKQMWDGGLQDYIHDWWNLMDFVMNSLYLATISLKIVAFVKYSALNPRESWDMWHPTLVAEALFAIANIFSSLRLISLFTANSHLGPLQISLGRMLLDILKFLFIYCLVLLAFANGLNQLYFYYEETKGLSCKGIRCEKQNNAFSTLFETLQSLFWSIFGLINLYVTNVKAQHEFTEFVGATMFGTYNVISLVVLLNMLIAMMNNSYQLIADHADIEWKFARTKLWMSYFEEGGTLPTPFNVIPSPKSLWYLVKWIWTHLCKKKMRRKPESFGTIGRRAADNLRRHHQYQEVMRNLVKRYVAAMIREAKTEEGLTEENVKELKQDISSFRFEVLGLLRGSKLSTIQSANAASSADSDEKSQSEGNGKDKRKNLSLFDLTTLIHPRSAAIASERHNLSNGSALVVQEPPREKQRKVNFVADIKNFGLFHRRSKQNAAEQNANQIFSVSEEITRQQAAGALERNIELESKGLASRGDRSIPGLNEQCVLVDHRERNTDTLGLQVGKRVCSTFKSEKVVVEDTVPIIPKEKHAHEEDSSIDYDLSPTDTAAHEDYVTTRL
As to the kind of experiment: block of DAMGO-driven TRPC4 calcium entry – cell-based, HEK293 TRPC4/mu-opioid, Fluo-4 calcium, dose response (AID 434942).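 Note: potency of inhibitors blocking the TRPC4 calcium response.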 It counts as functional.

The nature of series [12]: Luminescence Cell-Based Dose Response HTS to Identify Activators of Luciferase Translation or Activity in H4 […] Cells. [Related pubchem assays: 1829 (Project Summary), 1814 (Primary HTS)]. It counts as functional.
Series [13] deals with Cytochrome P450 2D6 (Homo sapiens, UniProt P10635).
Sequence of Cytochrome P450 2D6 (P10635 whole entry): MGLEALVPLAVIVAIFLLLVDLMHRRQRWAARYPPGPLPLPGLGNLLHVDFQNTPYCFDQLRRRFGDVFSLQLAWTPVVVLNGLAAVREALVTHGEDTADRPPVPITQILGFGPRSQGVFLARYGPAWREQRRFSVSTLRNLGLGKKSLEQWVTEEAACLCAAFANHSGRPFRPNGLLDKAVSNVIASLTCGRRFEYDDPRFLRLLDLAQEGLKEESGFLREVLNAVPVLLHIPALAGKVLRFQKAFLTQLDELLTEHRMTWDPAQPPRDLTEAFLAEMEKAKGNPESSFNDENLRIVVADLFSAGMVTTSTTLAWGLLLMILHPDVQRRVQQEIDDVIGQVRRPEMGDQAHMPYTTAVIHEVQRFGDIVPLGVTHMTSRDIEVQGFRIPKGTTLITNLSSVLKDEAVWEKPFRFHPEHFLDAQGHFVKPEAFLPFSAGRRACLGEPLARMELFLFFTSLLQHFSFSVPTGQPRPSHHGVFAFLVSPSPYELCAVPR
Series [14] deals with H4. In words: Luminescence Cell-Based Dose Response HTS to Identify Activators of 5'UTR Stem-Loop Driven Prion Protein mRNA Translation in H4 Neuroglioblastoma Cells. [Related pubchem assays: 1829 (Project Summary), 1814 (Primary HTS)]. It counts as functional. The settings on record: Homo sapiens.
Series [15] is described as follows: Luminescence Cell-Based Dose Confirmation HTS to Identify Activators of 5'UTR Stem-Loop Driven Alpha-Synuclein mRNA Translation in H4 Neuroglioblastoma Cells. [Related pubchem assays: 1829 (Project Summary), 1814 (Primary HTS)]. It counts as functional.
Series [16] has as its target Cytochrome P450 3A4 (Homo sapiens, UniProt P08684).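 Note: CYP3A4 tested as one member of a cytochrome P450 panel screen.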
Series [17] addresses T2, Cytochrome P450 1A2 (Homo sapiens, UniProt P05177).
T2 sequence (P05177 whole entry): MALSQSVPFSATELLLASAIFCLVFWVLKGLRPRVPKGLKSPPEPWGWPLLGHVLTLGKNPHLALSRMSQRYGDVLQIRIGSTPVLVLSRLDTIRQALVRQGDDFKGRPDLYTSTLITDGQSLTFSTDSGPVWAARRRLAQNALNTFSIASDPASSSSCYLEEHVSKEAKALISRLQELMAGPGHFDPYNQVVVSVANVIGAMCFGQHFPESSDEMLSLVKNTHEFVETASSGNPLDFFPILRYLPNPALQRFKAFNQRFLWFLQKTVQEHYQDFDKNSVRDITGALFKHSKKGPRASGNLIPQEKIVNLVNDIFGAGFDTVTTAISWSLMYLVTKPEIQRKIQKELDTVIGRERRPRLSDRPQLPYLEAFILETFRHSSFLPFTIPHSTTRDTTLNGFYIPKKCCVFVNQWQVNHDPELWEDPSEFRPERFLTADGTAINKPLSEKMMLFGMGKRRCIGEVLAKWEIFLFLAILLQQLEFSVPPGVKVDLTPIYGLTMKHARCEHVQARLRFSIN

Series [18] deals with Cytochrome P450 2C19 (Homo sapiens, UniProt P33261). As to the kind of experiment: Cytochrome panel assay with activity outcomes. Panel member name: p450-cyp2c19 Compounds with AC50 equal or less than 10 uM are considered active. Conditions: read-out: AC50. It counts as functional.
Sequence of Cytochrome P450 2C19 (P33261 whole entry): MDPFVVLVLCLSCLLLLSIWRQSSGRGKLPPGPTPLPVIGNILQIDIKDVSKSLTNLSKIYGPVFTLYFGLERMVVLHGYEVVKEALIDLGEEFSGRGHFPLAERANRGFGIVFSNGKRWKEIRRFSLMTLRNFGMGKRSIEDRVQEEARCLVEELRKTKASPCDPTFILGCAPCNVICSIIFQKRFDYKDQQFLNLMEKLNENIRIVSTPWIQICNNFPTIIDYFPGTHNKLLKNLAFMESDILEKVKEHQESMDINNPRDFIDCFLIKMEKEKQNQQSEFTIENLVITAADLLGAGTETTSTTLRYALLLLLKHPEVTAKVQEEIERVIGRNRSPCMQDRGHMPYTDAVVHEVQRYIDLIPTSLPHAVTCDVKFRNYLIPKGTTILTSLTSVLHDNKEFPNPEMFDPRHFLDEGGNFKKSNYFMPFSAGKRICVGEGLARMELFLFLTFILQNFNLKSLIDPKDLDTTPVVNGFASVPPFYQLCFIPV
Series [19] can be described thus: Trypanosoma cruzi growth suppression in host cells – NIH3T3 host cells, beta-gal luminescence, confirmation (AID 2044).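 Note: intracellular parasites grown in NIH/3T3 mouse fibroblasts as host cells; luminescent beta-galactosidase reporter signal from transgenic T. cruzi replicating inside host cells; inhibitors lower the luminescence signal.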 It counts as functional, cell-based.
A short description of series [20]: NIH3T3 cell viability loss – ATP luminescence, mouse fibroblasts, counter-screen, dose response (AID 2010).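 Note: cells exposed to compound for about 90 hours before reading.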 It counts as functional, cell-based.
Series [21] in a line: toxicity to human hepatoma HepG2 cells – cell-based, cherry-picked samples, cytotoxicity control, dose response (AID 1159577). The class given is functional.
Series [22] is described as follows: P. falciparum Dd2 growth inhibitors, dose response, SYBR Green, cherry-picked samples (AID 1159567). The class given is functional, cell-based.
Series [23] is described as follows: growth inhibition of yeast DHODH-expressing 3D7 parasites – SYBR Green, dry powder samples, dose response (AID 1159570).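 Note: parasite growth measured after 72 hours of compound exposure.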 It counts as functional, cell-based.
A short description of series [24]: toxicity to human HepG2 hepatoma cells – cell-based, plate reader, dry powder samples, cytotoxicity control, dose response (AID 1159569).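 Note: inhibitor potency with signal falling toward the positive control level.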 It counts as functional.
The nature of series [25]: growth inhibition of PfATP4-mutant resistant parasites – NITD609-resistant line, SYBR Green, dry powder, dose response (AID 1159571).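 Note: parasites synchronized at ring stage by sorbitol before testing.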 It counts as functional, cell-based.
Series [26] is described as follows: Dd2 malaria parasite growth inhibition potency – SYBR Green, dry powder samples, dose response (AID 1159566).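 Note: potency for growth inhibition with lower SYBR green DNA signal.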 The class given is functional, cell-based.

Activity calls are given as the source filed them.

Sequence of Cytochrome P450 2C9 (P11712 whole entry): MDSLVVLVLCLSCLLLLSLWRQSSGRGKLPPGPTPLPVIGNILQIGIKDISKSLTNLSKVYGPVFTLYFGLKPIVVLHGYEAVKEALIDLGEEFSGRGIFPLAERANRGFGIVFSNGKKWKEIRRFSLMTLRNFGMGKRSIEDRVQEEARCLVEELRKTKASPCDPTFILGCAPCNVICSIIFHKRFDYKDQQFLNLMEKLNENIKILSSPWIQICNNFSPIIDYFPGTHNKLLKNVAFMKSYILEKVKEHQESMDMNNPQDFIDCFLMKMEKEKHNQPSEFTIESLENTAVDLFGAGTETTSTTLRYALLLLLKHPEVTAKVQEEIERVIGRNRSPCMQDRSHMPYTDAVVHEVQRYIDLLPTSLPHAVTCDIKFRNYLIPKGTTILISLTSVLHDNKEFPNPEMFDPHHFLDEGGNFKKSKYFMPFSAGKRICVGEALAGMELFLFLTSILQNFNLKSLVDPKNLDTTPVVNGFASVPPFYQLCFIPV
Sequence of Cytochrome P450 3A4 (P08684 whole entry): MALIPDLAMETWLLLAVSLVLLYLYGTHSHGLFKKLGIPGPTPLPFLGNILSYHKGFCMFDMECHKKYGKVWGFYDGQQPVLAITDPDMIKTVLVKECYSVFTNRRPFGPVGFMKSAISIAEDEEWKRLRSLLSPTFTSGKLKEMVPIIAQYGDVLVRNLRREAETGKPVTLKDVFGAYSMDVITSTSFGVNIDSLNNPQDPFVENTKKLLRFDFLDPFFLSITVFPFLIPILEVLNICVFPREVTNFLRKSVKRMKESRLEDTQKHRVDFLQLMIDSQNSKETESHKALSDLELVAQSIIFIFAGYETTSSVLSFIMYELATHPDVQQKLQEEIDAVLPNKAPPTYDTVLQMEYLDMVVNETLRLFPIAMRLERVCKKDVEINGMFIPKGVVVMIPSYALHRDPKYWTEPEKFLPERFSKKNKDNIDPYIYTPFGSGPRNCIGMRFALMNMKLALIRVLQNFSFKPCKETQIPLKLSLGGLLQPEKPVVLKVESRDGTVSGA

Regarding `COc1cc(-c2nc3oc4ccccc4c(=O)c3c(=O)n2Cc2ccco2)cc(OC)c1OC`, the half-maximal activity concentration (AC50) in [1] is 2.38 µM (active); in series [3], 0.584 µM (active); in [4], 4.1 µM (active); in [5], 5.7 µM (active). In addition, in [2], the CC50 is > 50 µM (active).
For `Cc1nc(N2CCCCC2)sc1C(=O)c1ccc(Cl)c([N+](=O)[O-])c1`, the EC50 in [6] is > 150 µM (not active); in series [7], 15.6 µM (active); in [8], > 75 µM (inconclusive); in [9] it was 9.77 µM (active).
Regarding `COc1ccc2c(c1)[C@H]1[C@H](CO2)[C@H](c2ccccc2)[C@]2(C)C(=O)Nc3cc(OC)c(OC)cc3C(=O)N12`, the AC50 is 16.1 µM (active) in series [1], 18.9 µM (active) in series [3], 27.3 µM (active) in [4] and 25.6 µM (active) in series [5].
Regarding `CN1[C@@H]2CC[C@H]1CC(O)C2` (some centres undefined), the AC50 result in series [10] is “inconclusive”.
Take `Cc1cccc(C)c1N1CCc2c[nH]nc21`: the EC50 in series [11] is 7.5 µM (active).
Take `CCOc1ccc2nc(SCc3ccccc3C#N)sc2c1`: the EC50 is 0.884 µM (active) in [12], 0.7 µM (active) in series [14] and 1.1 µM (active) in [15]. Moreover, the values for the AC50 in series [13], in series [10] and in [16] were 17.8 µM (inconclusive), “inconclusive” and 12.6 µM (inconclusive), respectively.
With `Fc1cccc(Cl)c1CSc1nc[nH]n1`, the values for the AC50 entry in series [10], in [17] and in series [18] were “inconclusive”, 10 µM (inconclusive) and 39.8 µM (inconclusive), respectively.
Take `Cc1cc(-c2cn3ccccc3n2)c(C)n1-c1ccccc1`: the EC50 in series [19] was 1.43 µM (active); in [11], 7.5 µM (active); in series [20], > 30 µM (not active).
As for `CC(C)(CCc1nc2ccccc2[nH]1)C(=O)O`, the AC50 result in series [10] was “inconclusive”.
Regarding `O=C(C1CCN(S(=O)(=O)c2cccc3cccnc23)CC1)N1CCN(c2ccccn2)CC1`, the AC50 result in [10] is “inconclusive”; in series [17], 20 µM (inconclusive); in series [18], 7.08 µM (inconclusive).
For the molecule `O=C(CSc1nc2nncc-2c(O)n1-c1ccccc1Br)NCc1ccccc1Cl`, the EC50 in series [11] was 2.99 µM (active).
Consider `CCOc1ccc(NS(=O)(=O)c2ccc(C(=O)N(C)CCc3ccc(OC)c(OC)c3)cc2)cc1`, for which the AC50 in series [1] was 3.4 µM (active); in [3], 2.58 µM (active); in series [4] it was 5.92 µM (active); in series [5], 4.78 µM (active).
As to `CCOc1ccccc1N(C(=O)CNC(=O)c1ccco1)C(C(=O)NC1CCCC1)c1cccnc1` (centres undefined), the AC50 in [1] is 7.37 µM (active); in series [3], 6.15 µM (active); in series [4], 3.91 µM (active); in series [5], 9.65 µM (active).
For `C[C@H](CO)N1C[C@H](C)[C@H](CN(C)S(=O)(=O)c2ccc(F)cc2)Oc2ncc(/C=C/c3ccccc3)cc2C1=O`, the AC50 in series [1] was 16.5 µM (active); in series [3] it was 13.9 µM (active); in series [4], 28.3 µM (active).
For `O/N=C/c1ccccc1Oc1ccc(Cl)cc1`, the EC50 in series [11] is 6.68 µM (active).
With `Cc1ccc(S(=O)(=O)O/N=C2/CCCc3occc32)cc1`, the AC50 result in series [10] was “inconclusive”; in series [18], 35.5 µM (inconclusive).
Take `COc1ccc2c3c(n(C)c2c1)[C@H](CO)NCC31CCN(S(=O)(=O)c2cccc(F)c2)CC1`: the AC50 in series [21] was > 39 µM (inactive); in series [22], 4.66 µM (active).
`COc1ccccc1C#Cc1ccc([C@@H]2[C@@H](CO)N(C(=O)C3CCCCC3)[C@H]2C#N)cc1`: the AC50 in series [23] was 1.35 µM (active); in [24] it was 16.4 µM (active); in series [25], 1.06 µM (active); in series [21], > 39 µM (inactive); in series [26], 0.872 µM (active); in series [22], 2.73 µM (active).
As to `COc1ccc(CN2CC3(C2)CN(C(=O)CN(C)C)[C@H](CO)c2[nH]c4cc(OC)ccc4c23)cc1`, the AC50 in series [23] is 1.6 µM (active); in [24] it was 13.6 µM (active); in [25], 2.51 µM (active); in series [21], 35.4 µM (active); in [26], 1.64 µM (active); in [22] it was 2.87 µM (active).
With `O=C(C1CCCC1)N1CC(=O)N2[C@@H](CO)[C@H](c3ccc(C#CCc4ccccc4)cc3)[C@@H]2C1`, the AC50 in series [21] was 8.92 µM (active); in series [22], 2.47 µM (active).
Regarding `COc1ccccc1C#Cc1ccc2c(c1)[C@@H]1NCC[C@@H]1[C@H](CO)N2`, the AC50 in [23] was 3.15 µM (active); in series [24], 37.3 µM (active); in series [25], 4.53 µM (active); in [21], > 39 µM (inactive); in series [26], 1.94 µM (active); in series [22], 2.56 µM (active).
Take `C[C@@H]1CN([C@@H](C)CO)C(=O)c2c(c3ccccc3n2C)-c2ccccc2CO[C@@H]1CN(C)Cc1ccc(Cl)c(Cl)c1`: the AC50 is 2.24 µM (active) in [23]; 22.3 µM (active) in series [24]; 1.73 µM (active) in series [25]; 22.3 µM (active) in series [21]; 1.11 µM (active) in [26]; 1.34 µM (active) in series [22].

The record behind these values is ChEMBL document CHEMBL1201862, “PubChem BioAssay data set” (2004).
